# Measurements taken from patent publication US20050209232A1, “Pyridazinone ureas as antagonists of alpha4 integrins” (priority 2004, published 2005).
# Columns and labels:
# human α4β7 integrin = target: T1, human α4β7 integrin (Homo sapiens, UniProt P13612+P26010); assay: α4β7-K562 Cell Adhesion Assay (α4β7 Mediated Adhesion/MAdCAM-1); type: cell-based; settings: K562 cells expressing human α4β7 adhering to FLAG-hMAdCAM-1, 1 mM Mn2+
# T1 construct: expressed in transfected cells; host or cells: K562 cells, stably transfected
# T1 sequence (P13612 34-1032): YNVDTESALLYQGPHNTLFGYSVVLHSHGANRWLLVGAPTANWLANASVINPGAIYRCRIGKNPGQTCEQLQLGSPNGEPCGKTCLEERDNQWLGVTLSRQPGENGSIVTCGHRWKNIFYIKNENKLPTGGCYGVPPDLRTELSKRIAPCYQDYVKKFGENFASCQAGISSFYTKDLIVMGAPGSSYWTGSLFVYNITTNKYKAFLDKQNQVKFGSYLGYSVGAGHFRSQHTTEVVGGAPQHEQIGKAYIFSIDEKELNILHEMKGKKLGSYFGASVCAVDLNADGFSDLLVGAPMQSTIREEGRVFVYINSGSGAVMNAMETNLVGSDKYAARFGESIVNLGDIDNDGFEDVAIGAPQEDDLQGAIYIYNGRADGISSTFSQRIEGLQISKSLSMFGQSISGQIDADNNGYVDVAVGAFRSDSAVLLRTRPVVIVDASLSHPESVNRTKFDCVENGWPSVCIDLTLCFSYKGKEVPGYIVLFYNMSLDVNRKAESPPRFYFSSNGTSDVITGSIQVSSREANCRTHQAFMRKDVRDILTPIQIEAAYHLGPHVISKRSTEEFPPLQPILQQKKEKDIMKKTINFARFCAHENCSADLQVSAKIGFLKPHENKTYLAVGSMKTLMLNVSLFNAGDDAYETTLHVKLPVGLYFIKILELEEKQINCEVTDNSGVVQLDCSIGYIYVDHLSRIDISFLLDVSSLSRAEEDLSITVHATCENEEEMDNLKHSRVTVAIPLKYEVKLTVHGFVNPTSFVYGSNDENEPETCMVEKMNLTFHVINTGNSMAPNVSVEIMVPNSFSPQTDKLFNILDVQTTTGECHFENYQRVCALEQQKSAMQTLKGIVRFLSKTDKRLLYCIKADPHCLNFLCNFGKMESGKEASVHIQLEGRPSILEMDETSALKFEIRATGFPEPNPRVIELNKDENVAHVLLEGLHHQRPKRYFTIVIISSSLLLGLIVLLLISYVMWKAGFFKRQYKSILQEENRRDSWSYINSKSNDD
# T1 sequence (P26010 20-798): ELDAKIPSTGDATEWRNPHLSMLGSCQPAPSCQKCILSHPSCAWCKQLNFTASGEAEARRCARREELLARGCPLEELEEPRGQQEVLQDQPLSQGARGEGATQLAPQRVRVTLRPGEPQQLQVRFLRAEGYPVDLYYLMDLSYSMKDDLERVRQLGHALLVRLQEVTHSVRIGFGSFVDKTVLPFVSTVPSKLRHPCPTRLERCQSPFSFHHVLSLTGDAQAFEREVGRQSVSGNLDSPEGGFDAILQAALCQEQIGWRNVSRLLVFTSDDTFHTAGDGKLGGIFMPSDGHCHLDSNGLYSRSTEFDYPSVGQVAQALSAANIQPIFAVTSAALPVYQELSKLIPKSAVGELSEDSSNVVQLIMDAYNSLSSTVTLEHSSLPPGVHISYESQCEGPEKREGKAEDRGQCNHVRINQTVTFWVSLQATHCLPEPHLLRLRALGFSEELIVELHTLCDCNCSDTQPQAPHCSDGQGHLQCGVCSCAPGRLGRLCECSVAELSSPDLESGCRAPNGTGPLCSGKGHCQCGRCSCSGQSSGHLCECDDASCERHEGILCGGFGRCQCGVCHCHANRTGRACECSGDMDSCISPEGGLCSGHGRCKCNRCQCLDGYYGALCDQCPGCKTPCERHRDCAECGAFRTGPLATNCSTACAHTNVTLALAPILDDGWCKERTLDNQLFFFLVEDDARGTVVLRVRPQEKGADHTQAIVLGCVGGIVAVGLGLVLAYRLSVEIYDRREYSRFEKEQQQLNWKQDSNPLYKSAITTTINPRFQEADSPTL
# Protocol: α4β7-K562 Cell Adhesion Assay (α4β7 Mediated Adhesion/MAdCAM-1)
# M2 anti-FLAG Antibody Coated 96-well plates (Sigma) were coated for 1 hour at 4° C. with 2-8 μL/well recombinant FLAG-hMAdCAM-1 contained in 100 μL of Dulbecco's PBS, pH 7.4, with 1% BSA and 1 mM Mn^2+ (PBS-BSA-Mn). Plates were washed once with PBS-BSA-Mn. Buffer was removed and compounds to be tested (50 μL) were added at 2× concentration. Stably transfected K562 cells expressing human α4β7 integrin, (50 μL at 2×10^6/mL) that had been labeled with 100 μg/mL carboxymethyl fluorescein diacetate succinimidyl ester (CFDA-SE; Molecular Probes) for 15 min at 37° C. were added to each well and allowed to adhere for 1 h at room temperature. Plates were washed 4× in PBS-BSA-Mn and then cells were lysed for 2 min by addtion of 100 μL of PBS without Ca^2+, Mg^2+ supplemented with 0.1 M NaOH. The plate was read on a 96-well fluorescent plate reader at 485 nm excitation and 530 nm emission.
# α4β1 = target: T2, α4β1 (Homo sapiens, UniProt P05556+P13612); assay: Ramos Cell Adhesion Assay (α4β1 Mediated Adhesion/VCAM-1); type: cell-based; settings: Ramos cells adhering to recombinant hVCAM-1
# T2 construct: Ramos cells, (50 μL at 2×10^6/mL) labeled with 5 μM Calcein AM; endogenous in cells; host or cells: Ramos cells
# Protocol: Ramos Cell Adhesion Assay (α4β1 Mediated Adhesion/VCAM-1)
# Immulon 96 well plates (Dynex) were coated with 100 μL recombinant hVCAM-1 at 4.0 μg/mL in 0.05 M NaCO3 buffer pH 9.0 overnight at 4° C. (R&D Systems). Plates were washed 2 times in PBS with 1% BSA and blocked for 1 h@room temperature in this buffer. PBS was removed and compounds to be tested (50 μL) were added at 2× concentration. Ramos cells, (50 μL at 2×10^6/mL) labeled with 5 μM Calcein AM (Molecular Probes) for 1 h at 37° C., were added to each well and allowed to adhere for 1 h at room temperature. Plates were washed 4 × in PBS+1% BSA and cells were lysed for 15 minutes in 100 μL of 1 M Tris pH 8.0 with 1% SDS. The plate was read at 485 nm excitation and 530 nm emission.
# Balb/c mice = assay: In Vivo Model for Leukocytosis; design: species or system mouse; settings: bled 1-1.5 h after administration
# Source text: In Vivo Model for Leukocytosis
# Leukocytosis the increase in circulating white blood cells (leukocytes). This can be brought about by preventing leukocyte binding to integrin counter-receptor adhesion molecules expressed on high endothelial venules. This cell adhesion occurs between immunoglobulin superfamily molecules and integrins. Relevant examples of these paired interactions include Intracellular Adhesion Molecule-1 and AlphaL Beta2 integrin, Vascular Cell Adhesion Molecule-1 and α4β1 integrin, and Mucosal Addressin Cell Adhesion Molecule-1 and α4β7 integrin, respectively.
# In this model, a compound that antagonizes these leukocyte-endothelial interactions will cause an increase in circulating leukocytes, defined as leukocytosis, as measured at 1-1.5 h post-administration. This leukocytosis is indicative that normal lymphocyte or leukocyte emigration from the peripheral circulation was prevented. Similar emigration of cells out of the circulation into inflamed tissues is responsible for the progression and maintainance of the inflammatory state. Leukocytosis is an indication that lymphocyte and leukocyte extravasation is prevented, and is predictive of general anti-inflammatory activity.
# One week prior to being tested, 7-10 week old female Balb/c mice, n=8 per group, were bled and randomized according to leukocyte counts. One week later, the mice were adminstered test compound orally or subcutaneously and then bled 1-1.5 h after drug administration, approximately 1 h after the peak blood concentration of the compound has occurred. Whole blood, 250-350 microliters, was collected from each mouse into potassium-EDTA […] collection tubes (Becton-Dickenson) and mixed to prevent clotting.
# Cell counts and differential counts on the whole blood preparation were performed using an Advia 120 Hematology System (Bayer Diagnostics). Cell counts as total leukocytes and as total lympohcytes were made and compared to counts made from mice dosed with vehicle only. Data were reported as percent of vehicle control for lymphocyte counts and total leukocyte counts.
# Statistical analyses were performed using ANOVA with Dunnet's multiple comparison test.
# T2 sequence (P05556 21-798, one chain of several): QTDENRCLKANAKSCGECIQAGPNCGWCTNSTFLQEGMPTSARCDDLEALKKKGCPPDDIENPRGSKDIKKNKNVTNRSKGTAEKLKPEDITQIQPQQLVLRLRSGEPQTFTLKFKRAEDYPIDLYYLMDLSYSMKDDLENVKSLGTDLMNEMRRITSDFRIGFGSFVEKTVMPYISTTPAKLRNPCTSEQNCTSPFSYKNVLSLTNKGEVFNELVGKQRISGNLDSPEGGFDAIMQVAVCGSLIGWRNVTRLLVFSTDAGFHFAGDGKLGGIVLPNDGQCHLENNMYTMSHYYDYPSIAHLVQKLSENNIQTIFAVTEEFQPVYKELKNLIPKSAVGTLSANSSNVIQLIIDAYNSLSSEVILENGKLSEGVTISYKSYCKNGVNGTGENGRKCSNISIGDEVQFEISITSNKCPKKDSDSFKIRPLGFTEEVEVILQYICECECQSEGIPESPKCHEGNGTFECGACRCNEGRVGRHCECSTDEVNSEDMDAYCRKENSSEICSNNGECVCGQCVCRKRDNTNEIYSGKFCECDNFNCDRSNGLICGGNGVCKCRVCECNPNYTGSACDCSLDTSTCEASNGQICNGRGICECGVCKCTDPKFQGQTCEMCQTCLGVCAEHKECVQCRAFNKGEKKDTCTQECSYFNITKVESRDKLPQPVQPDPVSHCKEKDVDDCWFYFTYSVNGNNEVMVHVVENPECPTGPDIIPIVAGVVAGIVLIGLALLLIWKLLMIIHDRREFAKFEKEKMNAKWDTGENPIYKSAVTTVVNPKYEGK
IC50 (human α4β7 integrin),IC50 (α4β1),Compound,other results
17 nM,1750 nM,COc1cnn(C)c(=O)c1-c1ccc(C[C@H](NC(=O)N(C)CC(C)C)C(=O)O)cc1 [Cpd 13],Lymphoycte Counts % of Vehicle Control (Balb/c mice; 3 mg/kg sc): 84.4 % of Vehicle Control; Total Leukocyte Count % of Vehicle Control (Balb/c mice; 3 mg/kg sc): 84.4 % of Vehicle Control; Lymphoycte Counts % of Vehicle Control (Balb/c mice; 10 mg/kg sc): 133.6 % of Vehicle Control; Total Leukocyte Count % of Vehicle Control (Balb/c mice; 10 mg/kg sc): 133.5 % of Vehicle Control; Lymphoycte Counts % of Vehicle Control (Balb/c mice; 30 mg/kg sc): 154.3 % of Vehicle Control; Total Leukocyte Count % of Vehicle Control (Balb/c mice; 30 mg/kg sc): 149.5 % of Vehicle Control
2900 nM,> 5000 nM,"COc1cnn(C)c(=O)c1-c1ccc(C[C@H](NC(=O)N(C)CC(C)C)C(=O)OCCO)cc1 [Cpd 21, 2-(3-Isobutyl-3-methyl-ureido)-3-[4-(5-methoxy-2-methyl-3-oxo-2,3-dihydro-pyridazin-4-yl)-phenyl]-propionic acid 2-hydroxy-ethyl ester]",Lymphoycte Counts % of Vehicle Control (Balb/c mice; 3 mg/kg po): 148.1 % of Vehicle Control; Total Leukocyte Count % of Vehicle Control (Balb/c mice; 3 mg/kg po): 121.9 % of Vehicle Control; Lymphoycte Counts % of Vehicle Control (Balb/c mice; 10 mg/kg po): 156.8 % of Vehicle Control; Total Leukocyte Count % of Vehicle Control (Balb/c mice; 10 mg/kg po): 118.7 % of Vehicle Control; Lymphoycte Counts % of Vehicle Control (Balb/c mice; 30 mg/kg po): 189.6 % of Vehicle Control; Total Leukocyte Count % of Vehicle Control (Balb/c mice; 30 mg/kg po): 131.0 % of Vehicle Control
310 nM,> 5000 nM,COc1cnn(C)c(=O)c1-c1ccc(C[C@H](NC(=O)N(C(C)C)C2CCCCC2)C(=O)O)cc1 [Cpd 33],–
1830 nM,> 5000 nM,COc1cnn(C)c(=O)c1-c1ccc(C[C@H](NC(=O)N(C)C2CCN(Cc3ccccc3)C2)C(=O)O)cc1 (stereo partly shown) [Cpd 35],–
674 nM,> 5000 nM,COc1cnn(C)c(=O)c1-c1ccc(C[C@H](NC(=O)N[C@@H]2CS(=O)(=O)C[C@H]2O)C(=O)O)cc1 [Cpd 36],–
297 nM,> 5000 nM,CCN(CCN(C)C)C(=O)N[C@@H](Cc1ccc(-c2c(OC)cnn(C)c2=O)cc1)C(=O)O [Cpd 37],–
967 nM,> 5000 nM,COc1cnn(C)c(=O)c1-c1ccc(C[C@H](NC(=O)N2CCC[C@@H]2CNc2ccccc2)C(=O)O)cc1 [Cpd 38],–
871 nM,> 5000 nM,COc1cnn(C)c(=O)c1-c1ccc(C[C@H](NC(=O)N2CCC[C@H]2CN2CCCC2)C(=O)O)cc1 [Cpd 39],–
213 nM,> 5000 nM,COc1cnn(C)c(=O)c1-c1ccc(C[C@H](NC(=O)N(CC(C)C)c2ccccc2)C(=O)O)cc1 [Cpd 41],–
92 nM,> 5000 nM,COc1cnn(C)c(=O)c1-c1ccc(C[C@H](NC(=O)N(c2ccccc2)C(C)C)C(=O)O)cc1 [Cpd 42],–
24 nM,> 5000 nM,CCN(C(=O)N[C@@H](Cc1ccc(-c2c(OC)cnn(C)c2=O)cc1)C(=O)O)c1cc(O)ccc1C [Cpd 44],–
575 nM,> 5000 nM,COc1cnn(C)c(=O)c1-c1ccc(C[C@H](NC(=O)N(Nc2ccccc2)c2ccccc2)C(=O)O)cc1 [Cpd 46],–
1450 nM,> 5000 nM,COc1cnn(C)c(=O)c1-c1ccc(C[C@H](NC(=O)N(c2ccccc2)c2ccccc2)C(=O)O)cc1 [Cpd 47],–
67 nM,> 5000 nM,COc1cnn(C)c(=O)c1-c1ccc(C[C@H](NC(=O)N(Cc2ccccc2)c2ccccc2)C(=O)O)cc1 [Cpd 48],–
52 nM,> 5000 nM,COc1cnn(C)c(=O)c1-c1ccc(C[C@H](NC(=O)N(C)c2ccccc2OC(F)(F)F)C(=O)O)cc1 [Cpd 51],–
37 nM,4170 nM,COc1cnn(C)c(=O)c1-c1ccc(C[C@H](NC(=O)N(C)c2ccccc2C(F)(F)F)C(=O)O)cc1 [Cpd 52],–
880 nM,> 5000 nM,COc1cnn(C)c(=O)c1-c1ccc(C[C@H](NC(=O)N(C)c2ccccn2)C(=O)O)cc1 [Cpd 54],–
